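Cells were grown in 96-well plates and exposed to each compound for 48 hours at five concentrations; endpoints were interpolated linearly between bracketing concentrations, or set to the highest concentration if not reached. GI50: concentration for 50% inhibition of growth.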 The source made the active and inactive calls. Cut-off read from the data, not from the text of the source: active = GI50 up to about 1.1 µM and inactive = higher.
Experiments:
Assay in all cases: growth of human tumour cells (NCI), 48 h
ACHN = system: ACHN
BT-549 = system: BT-549
HCC 2998 = system: HCC 2998
HT-29 = system: HT-29
K562 = system: K562
KM12 = system: KM12
MDA-MB-231 = system: MDA-MB-231
MDA-MB-435 = system: MDA-MB-435
NCI-H226 = system: NCI-H226
NCI/ADR-RES = system: NCI/ADR-RES
OVCAR-8 = system: OVCAR-8
PC-3 = system: PC-3
RPMI-8226 = system: RPMI-8226
SK-MEL-28 = system: SK-MEL-28
SNB-19 = system: SNB-19
TK-10 = system: TK-10
U-251 = system: U-251
UACC-257 = system: UACC-257
UACC-62 = system: UACC-62
RXF 393 = system: RXF 393

| Structure (SMILES) | GI50 (ACHN) | GI50 (BT-549) | GI50 (HCC 2998) | GI50 (HT-29) | GI50 (K562) | GI50 (KM12) | GI50 (MDA-MB-231) | GI50 (MDA-MB-435) | GI50 (NCI-H226) | GI50 (NCI/ADR-RES) | GI50 (OVCAR-8) | GI50 (PC-3) | GI50 (RPMI-8226) | GI50 (SK-MEL-28) | GI50 (SNB-19) | GI50 (TK-10) | GI50 (U-251) | GI50 (UACC-257) | GI50 (UACC-62) | GI50 (RXF 393) |
| --- | --- | --- | --- | --- | --- | --- | --- | --- | --- | --- | --- | --- | --- | --- | --- | --- | --- | --- | --- | --- |
| O=C(NN=C1CCCCC1)Nc1ccccc1Cl | > 100 µM (inactive) | 64.4 µM (inactive) | 59.3 µM (inactive) | 36.3 µM (inactive) | 37.7 µM (inactive) | 38.3 µM (inactive) | > 100 µM (inactive) | 16.6 µM (inactive) | 39.9 µM (inactive) | 24.1 µM (inactive) | 62.5 µM (inactive) | > 100 µM (inactive) | 45.9 µM (inactive) | 79.3 µM (inactive) | 64.3 µM (inactive) | > 100 µM (inactive) | 84.5 µM (inactive) | 78.7 µM (inactive) | 36.8 µM (inactive) | – |
| COC(=O)C1=CS/C(=C2\S[C@@H]3[C@H](S2)[C@H]2C=C[C@@H]3C2)S1 | – | > 100 µM (inactive) | – | 13.1 µM (inactive) | 2.74 µM (inactive) | > 100 µM (inactive) | > 100 µM (inactive) | 2.06 µM (inactive) | 87.7 µM (inactive) | 9.66 µM (inactive) | > 100 µM (inactive) | 51.6 µM (inactive) | 30.7 µM (inactive) | 62.7 µM (inactive) | 77.1 µM (inactive) | > 100 µM (inactive) | 8.49 µM (inactive) | 66.5 µM (inactive) | 12.5 µM (inactive) | 29.6 µM (inactive) |
| O=C1/C(=C\c2cccc(Oc3ccccc3)c2)S(=O)(=O)C(c2ccccc2)N1Cc1ccccc1 (centres undefined) | 23 µM (inactive) | 29 µM (inactive) | 28.7 µM (inactive) | – | 26 µM (inactive) | 23.1 µM (inactive) | 25.6 µM (inactive) | 32.3 µM (inactive) | – | 19.4 µM (inactive) | 17.8 µM (inactive) | 24.7 µM (inactive) | – | 29.8 µM (inactive) | 21.4 µM (inactive) | 33.6 µM (inactive) | 33.7 µM (inactive) | 22.9 µM (inactive) | 19.1 µM (inactive) | 27 µM (inactive) |
| COc1ccc(/C=C2\C[C@H]3[C@@H]4CC=C5C[C@@H](O)CC[C@]5(C)[C@H]4CC[C@]3(C)\C2=N\O)cc1 | 19.5 µM (inactive) | 7.69 µM (inactive) | – | 16.1 µM (inactive) | 4.85 µM (inactive) | 16.8 µM (inactive) | 35.2 µM (inactive) | 10.5 µM (inactive) | 19.3 µM (inactive) | 19.4 µM (inactive) | – | 8.45 µM (inactive) | 2.26 µM (inactive) | 24.2 µM (inactive) | 25.8 µM (inactive) | 27.6 µM (inactive) | 10.5 µM (inactive) | 7.21 µM (inactive) | 17.7 µM (inactive) | 12.7 µM (inactive) |
| Cc1ccc(SC2C(=O)C3CC(OCc4ccccc4)C2(C)C3(C)C)cc1 (centres undefined) | > 100 µM (inactive) | > 100 µM (inactive) | > 100 µM (inactive) | 41.9 µM (inactive) | 32.9 µM (inactive) | > 100 µM (inactive) | > 100 µM (inactive) | > 100 µM (inactive) | > 100 µM (inactive) | > 100 µM (inactive) | > 100 µM (inactive) | 12.4 µM (inactive) | – | > 100 µM (inactive) | > 100 µM (inactive) | > 100 µM (inactive) | 39.3 µM (inactive) | – | > 100 µM (inactive) | 52 µM (inactive) |
| C=C(C)[C@H]1CC(=O)/C(C)=C\CC/C(C)=C/CC[C@@]2(C)O[C@@H]2C1 | 29.4 µM (inactive) | 47.6 µM (inactive) | 34.5 µM (inactive) | 16.3 µM (inactive) | 28.4 µM (inactive) | 20.8 µM (inactive) | 34.2 µM (inactive) | 17 µM (inactive) | – | 21.8 µM (inactive) | 35.5 µM (inactive) | 24.8 µM (inactive) | 20.7 µM (inactive) | 19.2 µM (inactive) | 59.8 µM (inactive) | 31.9 µM (inactive) | 22.5 µM (inactive) | 81.7 µM (inactive) | 8.47 µM (inactive) | – |
| C=CCOC(=O)CCCCCCCCCCCCCCCOC(=O)c1c(CCC[C@@H](C)O[Si](C)(C)C(C)(C)C)nc([O-])[n+]2c1CC[C@H]2CC1(CC/C=C\[C@H](CC)O[Si](C(C)C)(C(C)C)C(C)C)OCCO1 | 35.7 µM (inactive) | > 100 µM (inactive) | 73.8 µM (inactive) | – | – | 85.9 µM (inactive) | 18.6 µM (inactive) | > 100 µM (inactive) | > 100 µM (inactive) | > 100 µM (inactive) | – | > 100 µM (inactive) | 48.8 µM (inactive) | > 100 µM (inactive) | 80.2 µM (inactive) | > 100 µM (inactive) | 17.2 µM (inactive) | > 100 µM (inactive) | 30.4 µM (inactive) | – |
| OC12CC3c4ccccc4NC3C3Oc4cccc5c4C31CCN(CC1CC1)C2C5 (centres undefined) | 18.9 µM (inactive) | 16.3 µM (inactive) | – | 15.5 µM (inactive) | 15.5 µM (inactive) | 18.8 µM (inactive) | 17.9 µM (inactive) | 17.9 µM (inactive) | 26.1 µM (inactive) | 21.2 µM (inactive) | 16.4 µM (inactive) | 16.7 µM (inactive) | 18.4 µM (inactive) | 13.8 µM (inactive) | 18.2 µM (inactive) | 17.3 µM (inactive) | 17.3 µM (inactive) | 17.8 µM (inactive) | 18.4 µM (inactive) | 14.3 µM (inactive) |
| N#C[C@@]12CCCC(=O)[C@@H]1[C@H]1CCC[C@H]12 | 17.7 µM (inactive) | 17.9 µM (inactive) | 15.1 µM (inactive) | 19.7 µM (inactive) | 17.7 µM (inactive) | 13.3 µM (inactive) | 14.6 µM (inactive) | 17.1 µM (inactive) | 20.7 µM (inactive) | 22.5 µM (inactive) | 21.6 µM (inactive) | 13.9 µM (inactive) | 11 µM (inactive) | 17.7 µM (inactive) | 21.7 µM (inactive) | 19.9 µM (inactive) | 17.2 µM (inactive) | 20.2 µM (inactive) | 22.6 µM (inactive) | – |
| CC1OC(OC2C(CO)OC(O[C@H]3CC[C@@]4(C)C(=CC[C@H]5[C@@H]6C[C@@H]7O[C@](O)(CC[C@H](C)COC8OC(CO)C(O)C(O)C8O)[C@@H](C)[C@@H]7[C@@]6(C)CC[C@@H]54)C3)C(OC3OC(C)C(O)C(O)C3O)C2O)C(O)C(O)C1O (some centres undefined) | 14.3 µM (inactive) | 4.48 µM (inactive) | – | 11.9 µM (inactive) | 2.8 µM (inactive) | 2.36 µM (inactive) | 8.55 µM (inactive) | 2.07 µM (inactive) | 9.62 µM (inactive) | 4.4 µM (inactive) | 4.06 µM (inactive) | 4.48 µM (inactive) | 6.25 µM (inactive) | 2.94 µM (inactive) | 2.8 µM (inactive) | > 73.3 µM (inactive) | 3.15 µM (inactive) | 6.64 µM (inactive) | 5.42 µM (inactive) | 5.11 µM (inactive) |
| Nc1[nH]c(=S)[nH]c(=O)c1/N=N/c1c(Br)cc(S(N)(=O)=O)cc1Br | > 100 µM (inactive) | > 100 µM (inactive) | – | > 100 µM (inactive) | > 100 µM (inactive) | > 100 µM (inactive) | > 100 µM (inactive) | > 100 µM (inactive) | > 100 µM (inactive) | > 100 µM (inactive) | > 100 µM (inactive) | > 100 µM (inactive) | > 100 µM (inactive) | > 100 µM (inactive) | > 100 µM (inactive) | > 100 µM (inactive) | > 100 µM (inactive) | > 100 µM (inactive) | > 100 µM (inactive) | > 100 µM (inactive) |
| COC(=O)c1c(C#N)[nH]c(-c2ccsc2)c1C(=O)OC | > 100 µM (inactive) | > 100 µM (inactive) | – | > 100 µM (inactive) | 78 µM (inactive) | > 100 µM (inactive) | > 100 µM (inactive) | > 100 µM (inactive) | > 100 µM (inactive) | > 100 µM (inactive) | > 100 µM (inactive) | 70.6 µM (inactive) | 40.4 µM (inactive) | > 100 µM (inactive) | – | > 100 µM (inactive) | > 100 µM (inactive) | 40.6 µM (inactive) | 76 µM (inactive) | > 100 µM (inactive) |
| CN(C)c1c(C2CC(O)C(CO)O2)c(=O)c1=O (centres undefined) | > 100 µM (inactive) | > 100 µM (inactive) | > 100 µM (inactive) | > 100 µM (inactive) | > 100 µM (inactive) | > 100 µM (inactive) | > 100 µM (inactive) | > 100 µM (inactive) | 77.1 µM (inactive) | > 100 µM (inactive) | > 100 µM (inactive) | > 100 µM (inactive) | > 100 µM (inactive) | > 100 µM (inactive) | > 100 µM (inactive) | > 100 µM (inactive) | > 100 µM (inactive) | > 100 µM (inactive) | > 100 µM (inactive) | – |
| Nc1ccc(-c2nc3ccccc3s2)cc1F | 22 µM (inactive) | 68.4 µM (inactive) | – | 29.2 µM (inactive) | 35.6 µM (inactive) | 28.5 µM (inactive) | 13.6 µM (inactive) | 31.6 µM (inactive) | < 0.01 µM (active) | 28.8 µM (inactive) | > 100 µM (inactive) | 21.4 µM (inactive) | – | 46.6 µM (inactive) | 19.2 µM (inactive) | – | 15.4 µM (inactive) | 39.6 µM (inactive) | 20.7 µM (inactive) | 27.2 µM (inactive) |
